Measurements: ChEMBL document CHEMBL5390297, “New Teixobactin Analogues with a Total Lactam Ring” (2023)
In brackets after ≈: the same amount, converted by molar mass.

Columns and labels:
Format in all cases: functional
Nakaseomyces glabratus = assay: Antifungal activity against Candida glabrata ATCC 15126 assessed as reduction in bacterial growth incubated for 24 hrs by CLSI based broth microdilution method
Escherichia coli = assay: Antibacterial activity against Escherichia coli ATCC 25922 assessed as reduction in bacterial growth incubated for 18 hrs by CLSI based broth microdilution method
[1] = tested on: Staphylococcus epidermidis; assay: Antibacterial activity against Staphylococcus epidermidis ATCC 14990 assessed as reduction in bacterial growth incubated for 18 hrs by CLSI based broth microdilution method
Staphylococcus aureus [2] = assay: Antibacterial activity against methicillin-resistant Staphylococcus aureus ATCC 33591 assessed as reduction in bacterial growth incubated for 24 hrs by CLSI based broth microdilution method
Staphylococcus aureus [3] = assay: Antibacterial activity against Staphylococcus aureus ATCC 25923 assessed as reduction in bacterial growth incubated for 18 hrs by CLSI based broth microdilution method

Row | MIC (Nakaseomyces glabratus) | MIC (Escherichia coli) | SMILES | MIC [1] | MIC (Staphylococcus aureus [2]) | MIC (Staphylococcus aureus [3])
1 | > 512 µg/mL | > 512 µg/mL | CC[C@H](C)[C@@H]1NC(=O)[C@H](CCCNC(=N)N)NC(=O)[C@H](C)NC(=O)[C@H](NC(=O)[C@H](CO)NC(=O)[C@@H](NC(=O)[C@H](NC(=O)[C@@H](CCC(N)=O)NC(=O)[C@H](CO)NC(=O)[C@@H](NC(=O)[C@@H](Cc2ccccc2)NC)[C@@H](C)CC)[C@@H](C)CC)[C@@H](C)CC)CNC1=O |  |  | 
2 | > 512 µg/mL | > 512 µg/mL | CC[C@H](C)[C@H](NC(=O)[C@H](N)Cc1ccccc1)C(=O)N[C@@H](CO)C(=O)N[C@H](CCC(N)=O)C(=O)N[C@@H](C(=O)N[C@H](C(=O)N[C@@H](CO)C(=O)N[C@@H]1CNC(=O)[C@H]([C@@H](C)CC)NC(=O)[C@H](CCCNC(=N)N)NC(=O)[C@H](C)NC1=O)[C@@H](C)CC)[C@@H](C)CC |  |  | 
3 | > 512 µg/mL | > 512 µg/mL | CCCC[C@@H]1NC(=O)[C@H](CCCNC(=N)N)NC(=O)[C@H](C)NC(=O)[C@H](NC(=O)[C@H](CO)NC(=O)[C@@H](NC(=O)[C@H](NC(=O)[C@@H](CCC(N)=O)NC(=O)[C@H](CO)NC(=O)[C@@H](NC(=O)[C@@H](Cc2ccccc2)NC)[C@@H](C)CC)[C@@H](C)CC)[C@@H](C)CC)CNC1=O |  |  | 
4 | > 512 µg/mL | > 512 µg/mL | CC[C@H](C)[C@H](NC(=O)[C@H](N)Cc1ccccc1)C(=O)N[C@@H](CO)C(=O)N[C@H](CCCNC(=N)N)C(=O)N[C@@H](C(=O)N[C@H](C(=O)N[C@@H](CO)C(=O)N[C@@H]1CNC(=O)[C@H]([C@@H](C)CC)NC(=O)[C@H](CCCNC(=N)N)NC(=O)[C@H](C)NC1=O)[C@@H](C)CC)[C@@H](C)CC |  |  | 

Row | SMILES | MIC (Nakaseomyces glabratus) | MIC (Escherichia coli) | MIC [1] | MIC (Staphylococcus aureus [2]) | MIC (Staphylococcus aureus [3])
5 | CCCC[C@@H]1NC(=O)[C@H](CCCNC(=N)N)NC(=O)[C@H](C)NC(=O)[C@H](NC(=O)[C@H](CO)NC(=O)[C@@H](NC(=O)[C@H](NC(=O)[C@@H](CCC(N)=O)NC(=O)[C@H](CO)NC(=O)[C@@H](NC(=O)[C@H](N)Cc2ccccc2)[C@@H](C)CC)[C@@H](C)CC)[C@@H](C)CC)CNC1=O | > 512 µg/mL | > 512 µg/mL | 8 µg/mL (≈ 6.58 µM) | 4 µg/mL (≈ 3.29 µM) | 4 µg/mL (≈ 3.29 µM)
